This note sets out measurements from PMC12078602 (Nature Communications, 2025).

The target of one data set is T1, Glk (BT2493) (Bacteroides thetaiotaomicron, UniProt Q8A4V4).
T1 sequence (Q8A4V4 1-326): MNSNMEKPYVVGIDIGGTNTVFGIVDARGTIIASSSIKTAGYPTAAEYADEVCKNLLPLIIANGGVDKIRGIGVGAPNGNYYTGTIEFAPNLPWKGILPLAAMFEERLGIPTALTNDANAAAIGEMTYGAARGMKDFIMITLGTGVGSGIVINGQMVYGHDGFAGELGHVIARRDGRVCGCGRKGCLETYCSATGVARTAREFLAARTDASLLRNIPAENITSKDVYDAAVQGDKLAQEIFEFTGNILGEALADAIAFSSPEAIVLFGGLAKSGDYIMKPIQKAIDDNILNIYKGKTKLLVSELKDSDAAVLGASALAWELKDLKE
The data set is described as follows: glucokinase activity in vitro, coupled NADH oxidation, […] nm. The data set is classed as biochemical. The note with it: 50 mM Tris pH 7.4, 3 mM MgCl2, 10 mM NH4Cl; data only in supplement.

Data set [1] concerns Cur (Bacteroides thetaiotaomicron VPI-5482). The data set is described as follows: EMSA. For orientation: Mobility shift assays separate free from complexed probe on a gel.

In the case of `OC[C@H]1OC(O)[C@H](O)[C@@H](O)[C@@H]1O` (some centres unmarked) [glucose], the “glucokinase activity in vitro, coupled NADH oxidation, 340 nm” value at Glk (BT2493) is reported as “We determined that Glk exhibits glucokinase activity in vitro (Supplementary Fig. 4a)”.

As for fusA2 promoter probe (wild-type), in data set [1], the Kd came out at 4.97 pmol.
